Data published in patent publication US6737383B1, “Herbicidal oxadiazolidines” (priority 1999, dated 2004).

Experiments:
[1] = tested on: bedstraw; assay: Test B pre/postemergence bedstraw; assay type: in vivo, Galium aparine
Method in brief: (§1)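 Response is a visual 0-to-10 score relative to untreated plants, where 0 means no effect and 10 means complete control, taken twelve to sixteen days after application. Treatments went onto soil at planting and onto foliage of 1- to 4-leaf plants, using a surfactant-containing non-phytotoxic solvent.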

[2] = tested on: blackgrass; assay: Test B pre/postemergence blackgrass; assay type: in vivo, Alopecurus myosuroides
Method in brief: as §1

[3] = tested on: surinam grass; assay: Test B pre/postemergence surinam grass; assay type: in vivo, Brachiaria decumbens
Method in brief: as §1

[4] = tested on: cocklebur; assay: Test B pre/postemergence cocklebur; assay type: in vivo, Xanthium strumarium
Method in brief: as §1

[5] = tested on: giant foxtail; assay: Test B pre/postemergence giant foxtail; assay type: in vivo, Setaria faberii
Method in brief: as §1

[6] = tested on: morningglory; assay: Test B pre/postemergence morningglory; assay type: in vivo, Ipomoea hederacea
Method in brief: as §1

[7] = tested on: pigweed; assay: Test B pre/postemergence pigweed; assay type: in vivo, Amaranthus retroflexus
Method in brief: as §1

[8] = tested on: rape; assay: Test B pre/postemergence rape; assay type: in vivo, Brassica napus
Method in brief: as §1

[9] = tested on: soybean; assay: Test B pre/postemergence soybean; assay type: in vivo, Glycine max
Method in brief: as §1

[10] = tested on: sugar beet; assay: Test B pre/postemergence sugar beet; assay type: in vivo, Beta vulgaris
Method in brief: as §1

[11] = tested on: wheat; assay: Test B pre/postemergence wheat; assay type: in vivo, Triticum aestivum
Method in brief: as §1

[12] = tested on: wild oat; assay: Test B pre/postemergence wild oat; assay type: in vivo, Avena fatua
Method in brief: as §1

[13] = tested on: purple nutsedge; assay: Test B pre/postemergence purple nutsedge; assay type: in vivo, Cyperus rotundus
Method in brief: as §1

[14] = tested on: smallflower flatsedge; assay: Test B flood test smallflower flatsedge; assay type: in vivo, Cyperus difformis
Method in brief: (§2)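 Plants were grown to the 2-leaf stage before treatment with test chemical, then held in a greenhouse for twelve to sixteen days. Injury was visually rated against untreated controls on a 0–10 scale, where 0 is no effect and 10 is complete control.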

[15] = tested on: duck salad; assay: Test B flood test duck salad; assay type: in vivo, Heteranthera limosa
Method in brief: as §2

[16] = tested on: bamyardgrass; assay: Test B flood test barnyardgrass; assay type: in vivo, Echinochloa crus-galli
Method in brief: as §2

[17] = Postemergence, Rate 125 g/ha, scale 0 to 10, 0 is no effect, 10 is complete control
[18] = Preemergence, Rate 62 g/ha, scale of 0 to 10 where 0 is no effect and 10 is complete control
[19] = Preemergence, Rate 250 g/ha, scale of 0 to 10 where 0 is no effect and 10 is complete control
[20] = Preemergence, Rate 500 g/ha, scale of 0 to 10 where 0 is no effect and 10 is complete control
[21] = Rate 62 g/ha, Postemergence, scale 0 to 10 (0 no effect, 10 complete control)
[22] = Rate 250 g/ha, Postemergence, scale of 0 to 10 where 0 is no effect and 10 is complete control
[23] = Rate 500 g/ha, Postemergence, scale 0 to 10, 0 no effect, 10 complete control
[24] = Rate 62 g/ha, headed Pre-emergence (flood test species), scale 0 to 10 (0 no effect, 10 complete control)
[25] = Rate 125 g/ha, Pre-emergence, flood test species, scale 0 to 10 where 0 is no effect and 10 is complete control
[26] = Rate 250 g/ha, Pre-emergence, flood-test species, scale 0 to 10, 0 is no effect, 10 is complete control
[27] = Rate 500 g/ha, Pre-emergence, flood test species, scale 0 to 10 (0 no effect, 10 complete control)

Cc1c(-n2c(=O)on(C(=O)N(c3ccc(Cl)cc3)C(C)C)c2=O)ccc2ccccc12 [Compound 336]
Plant response rating, Bedstraw [1, 17]: 0 | Bedstraw plant response rating [1, 18]: 0 | Bedstraw plant response rating (0 to 10 scale) ([1]; Preemergence, Rate 125 g/ha): 0 | Bedstraw plant response rating [1, 19]: 0 | Bedstraw plant response rating [1, 20]: 0 | Bedstraw plant response rating [1, 21]: 0 | Plant response rating, Bedstraw [1, 22]: 0 | Plant response rating, Bedstraw [1, 23]: 0 | Plant response rating, Blackgrass [2, 17]: 0 | Blackgrass plant response rating [2, 18]: 0 | Blackgrass plant response rating (0 to 10 scale) ([2]; Preemergence, Rate 125 g/ha): 0 | Blackgrass plant response rating [2, 19]: 0 | Blackgrass plant response rating [2, 20]: 0 | Blackgrass plant response rating [2, 21]: 0 | Plant response rating, Blackgrass [2, 22]: 0 | Plant response rating, Blackgrass [2, 23]: 0 | Plant response rating, B. signalgrass [3, 17]: 0 | B. signalgrass plant response rating [3, 18]: 0 | B. signalgrass plant response rating (0 to 10 scale, 0 is no effect, 10 is complete control) ([3]; Preemergence, Rate 125 g/ha): 0 | B. signalgrass plant response rating [3, 19]: 0 | B. signalgrass plant response rating [3, 20]: 0 | B. signalgrass plant response rating [3, 21]: 0 | Plant response rating, B. signalgrass [3, 22]: 0 | Plant response rating, B. signalgrass [3, 23]: 0 | Plant response rating, Cocklebur [4, 17]: 0 | Cocklebur plant response rating [4, 18]: 0 | Cocklebur plant response rating (0 to 10 scale) ([4]; Preemergence, Rate 125 g/ha): 0 | Cocklebur plant response rating [4, 19]: 0 | Cocklebur plant response rating [4, 20]: 0 | Cocklebur plant response rating [4, 21]: 0 | Plant response rating, Cocklebur [4, 23]: 0 | Plant response rating, Giant foxtail [5, 17]: 0 | Giant foxtail plant response rating [5, 18]: 0 | Giant foxtail plant response rating (0 to 10 scale) ([5]; Preemergence, Rate 125 g/ha): 0 | Giant foxtail plant response rating [5, 19]: 0 | Giant foxtail plant response rating [5, 20]: 0 | Giant foxtail plant response rating [5, 21]: 0 | Plant response rating, Giant foxtail [5, 23]: 0 | Plant response rating, Morningglory [6, 17]: 0 | Morningglory plant response rating [6, 18]: 0 | Morningglory plant response rating (0 to 10 scale) ([6]; Preemergence, Rate 125 g/ha): 0 | Morningglory plant response rating [6, 19]: 0 | Morningglory plant response rating [6, 20]: 0 | Morningglory plant response rating [6, 21]: 0 | Plant response rating, Morningglory [6, 23]: 0 | Plant response rating, Redroot pigweed [7, 17]: 0 | Redroot pigweed plant response rating [7, 18]: 0 | Redroot pigweed plant response rating (0 to 10 scale) ([7]; Preemergence, Rate 125 g/ha): 0 | Redroot pigweed plant response rating [7, 19]: 0 | Redroot pigweed plant response rating [7, 20]: 0 | Redroot pigweed plant response rating [7, 21]: 0 | Plant response rating, Redroot pigweed [7, 23]: 0 | Plant response rating, Rape [8, 17]: 0 | Rape plant response rating [8, 18]: 0 | Rape plant response rating (0 to 10 scale) ([8]; Preemergence, Rate 125 g/ha): 0 | Rape plant response rating [8, 19]: 0 | Rape plant response rating [8, 20]: 0 | Rape plant response rating [8, 21]: 0 | Plant response rating, Rape [8, 23]: 0 | Plant response rating, Soybean [9, 17]: 1 | Soybean plant response rating [9, 18]: 0 | Soybean plant response rating (0 to 10 scale) ([9]; Preemergence, Rate 125 g/ha): 0 | Soybean plant response rating [9, 19]: 0 | Soybean plant response rating [9, 20]: 0 | Soybean plant response rating [9, 21]: 1 | Plant response rating, Soybean [9, 23]: 2 | Plant response rating, Sugarbeets [10, 17]: 0 | Sugarbeets plant response rating [10, 18]: 0 | Sugarbeets plant response rating (0 to 10 scale) ([10]; Preemergence, Rate 125 g/ha): 0 | Sugarbeets plant response rating [10, 19]: 0 | Sugarbeets plant response rating [10, 20]: 0 | Sugarbeets plant response rating [10, 21]: 0 | Plant response rating, Sugarbeets [10, 23]: 0 | Plant response rating, Wheat [11, 17]: 0 | Wheat plant response rating [11, 18]: 0 | Wheat plant response rating (0 to 10 scale) ([11]; Preemergence, Rate 125 g/ha): 0 | Wheat plant response rating [11, 19]: 0 | Wheat plant response rating [11, 20]: 0 | Wheat plant response rating [11, 21]: 0 | Plant response rating, Wheat [11, 23]: 0 | Plant response rating, Wild oats [12, 17]: 0 | Wild oats plant response rating [12, 18]: 0 | Wild oats plant response rating (0 to 10 scale) ([12]; Preemergence, Rate 125 g/ha): 0 | Wild oats plant response rating [12, 19]: 0 | Wild oats plant response rating [12, 20]: 0 | Wild oats plant response rating [12, 21]: 0 | Plant response rating, Wild oats [12, 23]: 0 | Plant response rating, Nutsedge [13, 17]: 0 | Nutsedge plant response rating [13, 18]: 0 | Nutsedge plant response rating (0 to 10 scale) ([13]; Preemergence, Rate 125 g/ha): 0 | Nutsedge plant response rating [13, 19]: 0 | Nutsedge plant response rating [13, 20]: 0 | Nutsedge plant response rating [13, 21]: 0 | Plant response rating, Nutsedge [13, 23]: 0 | S. Flatsedge plant response rating [14, 24]: 0 | S. Flatsedge plant response rating [14, 25]: 0 | S. Flatsedge plant response rating [14, 26]: 0 | S. Flatsedge plant response rating [14, 27]: 0 | Ducksalad plant response rating [15, 24]: 0 | Ducksalad plant response rating [15, 25]: 0 | Ducksalad plant response rating [15, 26]: 0 | Ducksalad plant response rating [15, 27]: 0 | Barnyardgrass plant response rating [16, 24]: 0 | Barnyardgrass plant response rating [16, 25]: 0 | Barnyardgrass plant response rating [16, 26]: 0 | Barnyardgrass plant response rating [16, 27]: 0
